Data from patent publication US7705189B2, “Calixarene compound, process for producing the same, intermediate therefor, and composition thereof” (JSR Corporation, priority 2004, dated 2010).

Columns and labels:
[1] = Thermal characteristics by TG/DTA; format: physicochemical; conditions: nitrogen atmosphere, temperature rise 10° C./min
Excerpt: TG/DTA and DSC were used for the determination of the decomposition initiation temperature, 5% mass reduction temperature, and glass transition temperature of the derivatives shown in Table 3. The glass transition temperature could not be determined in any of the compounds. All compounds were confirmed to have high heat resistance. Comparison of T3 with T3-7 in which vinyl ether was deprotected and a spacer was introduced confirmed that there were almost no changes in the decomposition initiation temperature and 5% mass reduction temperature caused by introduction of the spacer. The lower decomposition initiation temperatures of these compounds as compared with other derivatives are due to their slight acidity resulting from the hydroxyl groups. […] T3-2a decomposed in two stages, that is, first the decomposition of phthalic acid ester bond and second the decomposition of the ester bond of methacryloyl groups.

[2] = Solubility test (2 ml solvent added to 2 mg derivative); format: physicochemical
Procedure: A solubility test was carried out by adding 2 ml of each of the solvents shown in Table 4 to 2 mg of each of the derivatives listed in Table 4.

| First decomposition temperature: 5% mass decomposition temperature [1] [°C] | First decomposition temperature: Decomposition initiation temperature [1] [°C] | SMILES | Solubility in acetone and methylene chloride [2] |
| --- | --- | --- | --- |
| 365 | 336 | C=COCCOc1cc(OCCOC=C)c2cc1C1CCCC3c4cc(c(OCCOC=C)cc4OCCOC=C)C4CCCC5c6cc(c(OCCOC=C)cc6OCCOC=C)C(CCCC6c7cc(c(OCCOC=C)cc7OCCOC=C)C(CCCC7c8cc(c(OCCOC=C)cc8OCCOC=C)C(CCCC(c8cc(c(OCCOC=C)cc8OCCOC=C)C(CCCC2c2cc4c(OCCOC=C)cc2OCCOC=C)c2cc7c(OCCOC=C)cc2OCCOC=C)c2cc1c(OCCOC=C)cc2OCCOC=C)c1cc6c(OCCOC=C)cc1OCCOC=C)c1cc5c(OCCOC=C)cc1OCCOC=C)c1cc3c(OCCOC=C)cc1OCCOC=C [T3-6] | – |
| 348 | 375 | OCCOc1cc(OCCO)c2cc1C1CCCC3c4cc(c(OCCO)cc4OCCO)C4CCCC5c6cc(c(OCCO)cc6OCCO)C(CCCC6c7cc(c(OCCO)cc7OCCO)C(CCCC7c8cc(c(OCCO)cc8OCCO)C(CCCC(c8cc(c(OCCO)cc8OCCO)C(CCCC2c2cc4c(OCCO)cc2OCCO)c2cc7c(OCCO)cc2OCCO)c2cc1c(OCCO)cc2OCCO)c1cc6c(OCCO)cc1OCCO)c1cc5c(OCCO)cc1OCCO)c1cc3c(OCCO)cc1OCCO [T3-7] | – |

Continued, compound first:

| SMILES | First decomposition temperature: 5% mass decomposition temperature [1] [°C] | First decomposition temperature: Decomposition initiation temperature [1] [°C] | Solubility in acetone and methylene chloride [2] |
| --- | --- | --- | --- |
| C=C(C)C(=O)Oc1cc(OC(=O)C(=C)C)c2cc1C1CCCC3c4cc(c(OC(=O)C(=C)C)cc4OC(=O)C(=C)C)C4CCCC5c6cc(c(OC(=O)C(=C)C)cc6OC(=O)C(=C)C)C(CCCC6c7cc(c(OC(=O)C(=C)C)cc7OC(=O)C(=C)C)C(CCCC7c8cc(c(OC(=O)C(=C)C)cc8OC(=O)C(=C)C)C(CCCC(c8cc(c(OC(=O)C(=C)C)cc8OC(=O)C(=C)C)C(CCCC2c2cc4c(OC(=O)C(=C)C)cc2OC(=O)C(=C)C)c2cc7c(OC(=O)C(=C)C)cc2OC(=O)C(=C)C)c2cc1c(OC(=O)C(=C)C)cc2OC(=O)C(=C)C)c1cc6c(OC(=O)C(=C)C)cc1OC(=O)C(=C)C)c1cc5c(OC(=O)C(=C)C)cc1OC(=O)C(=C)C)c1cc3c(OC(=O)C(=C)C)cc1OC(=O)C(=C)C [T3-1] | 418 | 387 | – |
| Oc1cc(O)c2cc1C1CCCC3c4cc(c(O)cc4O)C4CCCC5c6cc(c(O)cc6O)C(CCCC6c7cc(c(O)cc7O)C(CCCC7c8cc(c(O)cc8O)C(CCCC(c8cc(c(O)cc8O)C(CCCC2c2cc4c(O)cc2O)c2cc7c(O)cc2O)c2cc1c(O)cc2O)c1cc6c(O)cc1O)c1cc5c(O)cc1O)c1cc3c(O)cc1O [T3] | 365 | 333 | – |
| CC1=C2OCOc3c4cc5c(c3C)OCOc3c6cc7c(c3C)OCOc3c8cc9c(c3C)OCOc3c%10cc%11c(c3C)OCOc3c%12cc%13c(c3C)OCOc3c(cc%14c(c3C)OCOc3c%15cc%16c(c3C)OCOc3c(cc%17c(c3C)OCOc3c%18cc%19c(c3C)OCOc3c(cc%20c(c3C)OCOc3c(cc%21c(c3C)OCOC1=C(C=C2C4CCCC9%10)C%21CCCC%18%17)C%20CCCC56)C%19CCCC%15%14)C%16CCCC%11%12)C%13CCCC78 (stereo not drawn) [formula (33)] | – | – | dissolved in acetone and methylene chloride |
